This note sets out measurements from patent US20260355318A1, “MOLECULAR MACHINES FOR TREATMENT OF CANCER, FUNGAL INFECTIONS, OR BACTERIAL INFECTIONS” (priority 2022, published 2026).

In assay [1] the test system is normal human dermal fibroblasts (NHDFs). Nature of the assay: Toxicity to NHDF (CellTiter-Glo). As to conditions: 5 min, 405 nm light 146 mW cm^−2, 5 min, read-out: IC50 (NHDF viability). The class given is cell-based. As to the method: Biocompatibility of MM with primary NHDF and HEK293T cells was assessed using the CellTiter-Glo® Luminescent Cell Viability Assay (Promega), per the manufacturer's instructions. The MM concentrations that reduced cell viability by 50% (IC50) were identified and the therapeutic index was calculated as the ratio between the IC50 and the MIC at a light intensity of 146 mW cm^−2.
(In ATP-based viability assays light output follows the ATP content of the culture.)

A further assay deals with E. coli. As to the kind of experiment: Electron microscopy (TEM, SEM) of E. coli. The class given is cell-based, Escherichia coli. The settings on record: 0.5×MIC, 43.8 J cm^−2. As to the method:
E. coli was cultured to mid-log phase in MHB media. Cells were collected and resuspended in PBS (1×) to an OD600 of ≈0.05. […] Cells were then irradiated for 5 min at 146 mW cm-2 (43.8 J cm^−2) after which cells were fixed with Karnovsky's fixative (Carlson et al., 2003), and post-fixed with 1% osmium, and dehydrated with a series of ethanol washes. For TEM, samples were embedded in epoxy resin (PolyBed 812; Polyscienses, Inc., Warrington, PA, United States) after dehydration in a graduated 50-100% ethanol concentration series of washes. Ultrathin sections (65 nm) were cut using a Leica EM UC7 ultramicrotome (Leica Microsystems, Wetzlar, Germany) and post-stained with uranyl acetate and lead citrate. Specimens were observed using a JEOL JEM2100 TEM ([…], Japan) operating at an accelerating voltage of 80 kV. For SEM, following ethanol dehydration samples were critical point dried using a Leica EM CPD300 (Leica Microsystems, Wetzlar, Germany), sputter-coated with 10 nm of gold, and imaged with an FEI Apreo SEM (FEI Apreo, ThermoFisher Scientific, Waltham, MA) using a secondary electron detector.

A further assay deals with A. baumannii. As to the kind of experiment: MIC, A. baumannii. The class given is cell-based, Acinetobacter baumannii. As to conditions: for MIC of MM: A. baumannii, 405 nm light; for MIC: Acinetobacter baumannii, read-out: MIC of MM. The essentials:
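Cell suspensions were exposed to compound at 0.3125-40 μM for 30 min in the dark, with agitation, at 30 or 37 °C depending on strain. Each sample was then irradiated with 405 nm light at 146 mW cm^−2 for 5 min (43.8 J cm^−2), inoculated into MHB and incubated overnight. MIC was read as the lowest concentration without visible growth, alongside non-irradiated controls.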

For assay [2], the system named is mitochondrial cytochrome c. Nature of the assay: Cytochrome c release. The class given is cell-based, Candida albicans. The settings on record: 2×MIC, p<0.05. As to the method:
Cells were harvested for protoplast preparation by digestion with zymolyase 20 T (20 mg mL-1, US Biological Life Sciences, MA, USA) in 0.1 M potassium phosphate buffer (pH 6.0) containing 1 M sorbitol for 1 h at 30 °C. Mitochondrial cytochrome c was extracted and reduced with ascorbic acid (0.5 mg mL^−1) as previously described (Yun and Lee, 2016). The absorbance at 550 nm was determined on a Beckman Coulter DU 800 spectrophotometer (Fullerton, CA, USA). Cytochrome c levels were normalized to the protein content determined using the Pierce assay (Pierce™ BCA Protein Assay Kit, Thermo Fisher Scientific, MA, USA).

Another assay deals with C. albicans. Nature of the assay: Development of resistance / cross-resistance in C. albicans (serial passage, single-step). The class given is cell-based. The settings on record: Candida albicans, read-out: MIC of MM in antifungal-resistant C. albicans. As to the method:
FIG. 3: Evaluation of the development of resistance to MMs in C. albicans. For the stepwise resistance assessment by serial passage (left), C. albicans cell suspensions were treated with increasing concentrations (0.3125-160 μM) of different MMs (8 mM stock in DMSO) and then irradiated with […] light (87.6 J cm^−2). The irradiated cell suspensions were then inoculated in MOPS-buffered RPMI 1640 (pH 7.0, Sigma, MO, USA), and the tubes were incubated at 30 ° C for 48 h. […] Cells able to grow at 0.5×MIC of each MM were collected by centrifugation (5,000×g, 5 min), resuspended and re-challenged with a range of MM concentrations and irradiated with 405 nm light (87.6 J cm^−2). The procedure was repeated for a total of 20 consecutive cycles. […] Irradiated cells were then inoculated in YPD and incubated at 30 °C. However, MM-resistant colonies could not be recovered even after 14 days of incubation. Created with Biorender.com.
A modified version of the broth microdilution serial passage method was used to assess the development of resistance to visible-light-activated MMs in C. albicans (Kapoor et al., 2019). C. albicans cell suspensions were prepared and irradiated as previously described for the determination of MM MIC. Cells were then inoculated into buffered RPMI 1640 and incubated at 30 ° C for 48 h. Cells able to grow at 0.5×MIC of MM were centrifuged (5,000×g, 5 min), resuspended, rechallenged with different MM concentrations, and irradiated with 405-nm light (87.6 J cm^−2). The procedure was repeated for 20 consecutive cycles. The antifungals AMB, CAS, and FLC were processed similarly, except that light was omitted, and used as controls.

For orientation: IC50 means the point on the concentration scale where inhibition reaches its midpoint. The MIC is the lowest concentration that inhibits growth of the organism. Take `C[C@@H]1Cc2ccc3ccccc3c2/C1=C1\c2ccccc2Sc2cc(NCCN(C)C)ccc21` [MM 1, N^1N^1-dimethyl-N^2-(9-(2-methyl-2,3-dihydro-1H-cyclopenta[a]naphthalen-1-ylidene)-9H-thioxanthen-3-yl) ethane-1,2-diamine]: the half-maximal inhibitory concentration (IC50) in assay [1] came to 5 µM. The “cell morphology (TEM)” value with E. coli is “substantial changes in cell morphology”. Also, the “MIC of MM” value with A. baumannii stood at 2.5 µM. In addition, the MIC is 2.5 µM in the assay on A. baumannii and 1.25 µM with C. albicans. The “mitochondrial cytochrome c levels” value in assay [2] is “significant reductions in mitochondrial cytochrome c levels”.
`C[C@@H]1Cc2ccc3ccccc3c2/C1=C1\c2ccccc2Sc2cc(NCCN)ccc21` (racemic) [MM 6, N^1-(9-(2-methyl-2,3-dihydro-1H-cyclopenta[a]naphthalen-1-ylidene)-9H-thioxanthen-3-yl)ethane-1,2-diamine]: the IC50 in assay [1] amounted to 10 µM. Further, in the assay on E. coli, the “cell morphology (TEM)” value was “substantial changes in cell morphology”. Also, in the assay with A. baumannii, the “MIC of MM” value is 2.5 µM. Further, the MIC in the assay on A. baumannii and with C. albicans was 2.5 µM throughout. Besides, in assay [2], the “mitochondrial cytochrome c levels” value is given as “significant reductions in mitochondrial cytochrome c levels”.
